Experimental data reported in PubChem BioAssay (NCI).
Values joined by “and” are separate entries in the source; they are usually repeats but may differ in a detail not shown here. Identical values can stand only once.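 Values below derive from 48-hour exposures of cells grown in 96-well plates, with endpoints linearly interpolated between the two concentrations bracketing the appropriate inhibition level. Here, GI50 denotes the concentration required for 50% inhibition of growth. At the TGI there is no net growth.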

Experiments:
Assay in all cases: inhibition of tumour cell growth, NCI panel, 48 h
[1] = tested on: NCI/ADR-RES ovarian
[2] = tested on: SK-OV-3 ovarian
[3] = tested on: IGROV1 ovarian
[4] = tested on: MDA-MB-231 breast
[5] = tested on: UACC-62 melanoma
[6] = tested on: LOX IMVI melanoma
[7] = tested on: SN12C renal
[8] = tested on: T-47D breast
[9] = tested on: NCI-H522 lung
[10] = tested on: OVCAR-5 ovarian

Compound | GI50 [1] | TGI [1] [µM] | GI50 [2] [µM] | TGI [2] [µM] | GI50 [3] | TGI [3] [µM] | GI50 [4] [µM] | TGI [4] [µM] | GI50 [5] [µM] | TGI [5] [µM] | GI50 [6] [µM] | TGI [6] [µM] | GI50 [7] [µM] | TGI [7] [µM] | GI50 [8] [µM] | TGI [8] [µM] | GI50 [9] | TGI [9] | GI50 [10] [µM] | TGI [10] [µM]
Cn1nc(C(F)(F)F)cc1-c1c[nH]c(OCc2ccc(Cl)cc2)c(-c2ccc(Cl)c(C(F)(F)F)c2)c1=O | 1.42 µM | > 50 | 1.36 | 4.19 | 1.74 µM | > 40.5 | 1.13 | 3.51 | 0.516 | 2.29 | 1.23 | 3.56 | 0.755 | 6.95 | 0.803 | 3.27 | 0.552 µM | 6.15 µM | 1.71 | > 32.8
CCNC(=O)Nc1ccc(Oc2ccnc3ccc4c(ccn4C)c23)cc1 | 55.8 µM | > 100 | 19.4 | 56.5 | > 100 µM | > 100 | 26.3 | 62.8 | 19.5 | 39.3 | 20.4 | 40.7 | 20.9 | 43.8 | 23.2 | 62.1 | 43.8 µM | > 100 µM | > 100 | > 100
c1ccc2cc(NCNc3ccc4ccccc4c3)ccc2c1 | – | 72.5 | – | > 100 | – | 35 | – | 38.9 | – | 30.7 | – | 25.9 | – | 25.8 | – | 49.4 | – | 49.5 µM | – | 51.5
CN(C)CCCCC(C(=O)CBr)(c1ccccc1)c1ccccc1 | 2.85 µM | 10.1 | 6.63 | 19.4 | 3.6 µM | 15.6 | 1.89 | 4.49 | 1.64 | 4.14 | 1.44 | 2.99 | 1.98 | 5.07 | 1.14 | 3.71 | 1.25 µM | 3.4 µM | 3.06 | 10.9
CCc1nc(N)nc(N)c1-c1ccc2nnn(O)c2c1 | – | > 100 | – | > 100 | – | > 100 | – | > 100 | – | > 100 | – | > 100 | – | > 100 | – | > 100 | – | > 100 µM | – | > 100
CC[C@@H](C(=O)[C@H](C)[C@H](O)[C@@H](C)[C@H]1O[C@H]([C@@H](CC)C(=O)N(CC)CC)CC[C@H]1C)C1O[C@]2(C=C[C@@H](O)[C@]3(CC[C@@](C)([C@H]4CC[C@](O)(CC)[C@H](C)O4)O3)O2)[C@H](C)C[C@@H]1C (stereo partly specified) | 2.56 µM | 9.27 | 3.06 | 10.1 | 2.73 µM | 10.8 | 1.86 | 4.29 | 2.43 | 10.8 | 1.83 | 4.29 | 2.75 | 10.1 | 2.44 | 13.7 | 2.34 µM | 7.74 µM | 2.85 | 11.1
CONC(C)=O | – | > 100 | – | > 100 | – | > 100 | – | > 100 | – | > 100 | – | > 100 | – | > 100 | – | > 100 | – | > 100 µM | – | > 100
CCOC(=O)Nc1nc2ccc(Br)cc2s1 | > 50 µM | > 50 | > 50 | > 50 | > 50 µM | > 50 | > 50 | > 50 | > 50 | > 50 | > 50 | > 50 | > 50 | > 50 | > 50 | > 50 | > 50 µM | > 50 µM | > 50 | > 50
C=C1C(=O)O[C@H]2C[C@@H]1CC/C(C)=C/CC/C(C)=C/CC[C@@]2(C)O | > 100 µM | > 100 | > 100 | > 100 | 23.1 µM | 74.2 | 25.7 | 53.7 | 44.1 | > 100 | 17.4 | 31.5 | 24.9 | 65.7 | > 100 | > 100 | 27.4 µM | 79 µM | > 100 | > 100
COc1ccc(Cn2cc3c(c2-c2ccccc2)CCc2cnoc2-3)cc1OC | 0.324 µM | 1.91 | 1.48 | > 100 | 1.59 µM | > 100 | 2.13 | > 100 | 0.581 | > 100 | 0.819 | > 100 | 5.16 | > 100 | 0.664 | 71.2 | 0.229 µM | 0.801 µM | 6.2 | > 100
COc1cc2ncnc(Nc3cccc(Cl)c3F)c2cc1OC(=O)N1CCN(C)C[C@H]1C | > 36.3 µM | > 75.2 | 1.12 | > 32.1 | 0.888 µM | > 63.9 | 25.3 | > 59.5 | > 40.7 | > 65.5 | > 36.5 | > 53.8 | 40.5 | > 100 | 2.47 | > 45.5 | 0.523 µM | > 31.3 µM | > 32.7 | > 90.8
C[C@@H](NC(=O)/C(C#N)=C/c1ccc([N+](=O)[O-])cc1)c1ccccc1 | 3.19 µM | 13.3 | 8.33 | 23.3 | 2.9 µM | 8.13 | 2.3 | 5.23 | 1.8 | 3.71 | 1.94 | 4.64 | 2.11 | 4.85 | 5.53 | 26.4 | 1.71 µM | 3.47 µM | 1.96 | 4.06
C#CCN(Cc1nc2cc(C(F)(F)F)ccc2nc1-c1ccccc1)c1ccc(C)cc1 | 4.58 µM | – | 8.56 | > 26.4 | 6.13 µM | > 64.9 | 9.39 | 40.4 | 7.32 | 27.9 | 24.8 | > 48.5 | > 28.2 | > 59.9 | 2.85 | 31.6 | 3.3 µM | 26 µM | > 21.2 | > 40.9
Cc1ccc2c(c1)c(Sc1ccc(C(=O)NO)cc1)c1n2CN(C)CC1 | 3.88 µM | 19 | 1.77 | 3.8 | 2.23 µM | 5.46 | 1.51 | 4.13 | 1.51 | 3.25 | 1.59 | 3.36 | 2.28 | 6.79 | 1.53 | 5.45 | 1.16 µM | 2.61 µM | 1.75 | 5.54
N=C(N)SCc1c2ccccc2c(CSC(=N)N)c2ccccc12 | 23.8 µM | > 100 | 10.4 | 22.6 | 18.2 µM | 78.4 | 12 | 45.1 | 3.59 | 20.3 | 1.4 | 21.9 | 3 | 25.7 | 3.97 | 22.1 | 3.23 µM | 30.7 µM | 14.8 | 28.7
CC(C)(C)[Si](C)(C)OC1[C@@H](O[Si](C)(C)C(C)(C)C)[C@@H](CNC(=O)NC(=O)CF)O[C@H]1n1cnc2c(NC(=O)Nc3ccccc3)ncnc21 (stereo partly specified) | 48.5 µM | > 50 | > 50 | > 50 | 22.5 µM | > 50 | 7.76 | 23.1 | 31.2 | > 50 | 6.14 | 12.5 | 3 | 13.2 | 4.7 | > 50 | > 50 µM | > 50 µM | 15.9 | > 50
CCOC(=O)c1cc(C(=O)c2cc(OC)c(OC)c(OC)c2)n2c1ccc1ccccc12 | 0.172 µM | > 100 | 1.02 | > 100 | 0.353 µM | > 100 | 1.48 | > 100 | 0.171 | > 100 | 0.669 | > 100 | 0.814 | > 100 | 0.57 | > 100 | 0.131 µM | – | 0.539 | > 100
CCCCCCCCCCCCSC1=C(Cl)C(=O)C(OC)=C(OC)C1=O | 2.48 µM | 8.94 | 9.78 | 27.3 | 6.99 µM | 20.7 | 1.86 | 10.4 | 2.36 | 17.6 | 0.462 | 5.38 | 1.75 | 16.5 | 0.42 | 2.73 | 0.379 µM | 3.75 µM | 3.49 | 11.7
CC(=O)Nc1c(I)c(NC(C)=O)c(I)c(C(=O)O)c1I | > 100 µM | > 100 | > 100 | > 100 | > 100 µM | > 100 | > 100 | > 100 | > 100 | > 100 | > 100 | > 100 | > 100 | > 100 | > 100 | > 100 | > 100 µM | > 100 µM | > 100 | > 100
COc1cc(/C(=C2/O[C@@H]([C@H]3COC(C)(C)O3)[C@H]3OC(C)(C)O[C@@H]23)c2ccc3ccccc3c2)cc(OC)c1OC | 4.26 µM | 22.3 | 4.37 | > 100 | 3.3 µM | 10.9 | 6.28 | 69.7 | 7.13 | > 100 | 3.39 | 19.8 | 3.65 | > 100 | 3.45 | 40.6 | 2.27 µM | 6.54 µM | 14 | > 100
Cc1ccc(NC(=O)c2cc3ccccc3c(N=Nc3cc(S(=O)(=O)O)ccc3O)c2O)c(C)c1 | – | > 100 | – | > 100 | – | > 100 | – | > 100 | – | 83.8 | – | > 100 | – | > 100 | – | > 100 | – | > 100 µM | – | 89.2
C[C@]12CC[C@@H]3c4cc(O)c(O)cc4CC[C@H]3[C@@H]1CC[C@@H]2O | 1.3 µM | > 45.4 | 4.19 | 61.8 | 11 µM | > 91.3 | 4.61 | 52.5 | 3.9 | 29.1 | 5.97 | 23.6 | 6.21 | > 100 | 7.73 | 27.7 | 0.987 µM | 3.83 µM | 25 | > 100
COc1ccc2c(c1)CC[C@@H]1[C@@H]2CC[C@]2(C)c3c(cc(C(=O)O)c4sccc34)C[C@@H]12 | 15.4 µM | 40.2 | 26 | 61.2 | 29.7 µM | > 100 | 25.6 | 59.7 | 17.1 | 36.5 | 17.7 | 42.8 | 17.8 | 41.3 | 8.21 | 49 | 24.7 µM | 86.8 µM | 26 | 50.1
COC(=O)C1=COC(C)C2CN3CCc4c([nH]c5cc(OC)c(OC)cc45)C3CC12 (stereo unspecified) | 15.1 µM and 64.2 µM | > 100 | – | > 100 | > 100 µM and 45.7 µM | > 100 | – | > 100 | – | > 100 | – | > 100 | – | > 100 | – | > 100 | > 100 µM and 22 µM | > 100 µM and 57.2 µM | – | > 100
Cc1ccc(-c2cc3c4c(nc5ccccc53)C(=O)c3cccnc3-c4n2)cc1 | 14.3 µM | 49.7 | 34.7 | > 94.4 | 10.7 µM | 55.4 | 16.8 | > 69.9 | 16 | 31.1 | 3.4 | 14.5 | 14.4 | 30 | 22.7 | 99.4 | 5.55 µM | 21.9 µM | 23 | 60.9
O=C(/C(=C/c1ccc([N+](=O)[O-])cc1)SCc1ccc(Cl)cc1)c1ccc(F)cc1 | 2.78 µM | 11.2 | 16.6 | 63.5 | 3.93 µM | 22.3 | 2.14 | 5.98 | 2.27 | 8.47 | 1.63 | 3.1 | 2.4 | 7.43 | 4.32 | 19.3 | 1.84 µM | 3.76 µM | 3 | 12.1
